Measurements from patent US20250154288A1, “CYTOTOXICITY TARGETING CHIMERAS FOR C-C CHEMOKINE RECEPTOR 2-EXPRESSING CELLS” (GLAXOSMITHKLINE INTELLECTUAL PROPERTY DEVELOPMENT LIMITED, priority 2022, published 2025).
Structures can show the parent of a compound that is named as a salt.

Legend:
[1] = target: T1, CHOK1 cells engineered to overexpress human CCR2 (Homo sapiens, UniProt P41597); assay: Antibody Dependent Cellular Cytotoxicity (ADCC) Reporter Assay; assay type: cell-based; conditions: with anti-cotinine antibody (human IgG1 Fc, S239D/I332E); Jurkat FcγRIIIa NFAT-luciferase reporter cells; average if several runs; read-out: ADCC Reporter Assay pEC50 (converted)
T1 construct: expressed in transfected cells; host or cells: CHOK1
Method: An antibody dependent cellular cytoxocity reporter assay was conducted using the following four assay components: (i) ARM compound of Formula (I) targeting CCR2 (concentrations ranging from 1 pM to 10 μM) (ii) anti-cotinine antibody having a heavy chain sequence of SEQ ID NO: 11 and a light chain sequence of SEQ ID NO: 12 (rabbit variable region with human IgG1 Fc domain containing a DE mutation (S239D/I332E)) (concentrations ranging from 0.01 μg/mL to 200 μg/mL); (iii) target cells: CHOK1 cells engineered to overexpress either human CCR2 (typically 1000-20,000 cells per well) and (iv) reporter cells: Jurkat cells engineered to express FcγRIIIa with the reporter gene luciferase under the control of the NFAT promoter (typically 3000-75,000 cells per well). Reagents were combined in a final volume of 20 μL in a 384-well tissue culture treated plate. All four assay components were incubated together for about 12-18 hours. Thereafter, BioGlo Detection reagent (Promega) was added to the wells to lyse the cells and provide a substrate for the luciferase reporter protein. Luminescence signal was measured on a microplate reader and signal:background was calculated by dividing the signal of a test well by the signal obtained when no heterobivalent compound of Formula (I) was added. EC50 calculations were done using Graphpad Prism Software, specifically a nonlinear regression curve fit (Y=Bottom+(Top−Bottom)/(1+10 ^((Log EC50−X)*HillSlope))).
ARMs compounds of Formula (I) of the invention were tested for ADCC activity in the above assay in or more experimental runs and the results are shown in Table 3 below. Potency of the compounds of Formula (I) of the invention is reported as a pEC50 value. The pEC50 value is the negative log of the EC50 value, wherein the EC50 value is the half maximal effective concentration measured in molar (M). For compounds tested in more than one experimental run, the pEC50 value is reported as an average.

[2] = target: human alpha1 nicotinic acetylcholine (nACh) receptor (Homo sapiens, UniProt P02708+Q07001); assay: Nicotinic Acetylcholine Receptor Antagonism Assay (IONFlux automated patch clamp); assay type: cell-based; conditions: for IC50: antagonism of nAChR stimulated with acetylcholine, average if several runs; for Emax at 100 µM: maximum percentage antagonism at Maximum Concentration of Compound Tested 100 μM
Method: Cells expressing human alpha1 nicotinic acetylcholine (nACh) receptor (nAChR) were washed and dissociated using Trypsin containing buffer. Cells were then washed and seeded at a density of 3-5 million cells/mL and allowed to grow for 3 days. Then, 60-80 μL of cells were added to plates and incubated with dose response of an ARM compound of Formula (I) with a top concentration of either 10 μM or 100 μM. The receptor was then stimulated via addition of acetylcholine (ACh) and activation of the receptor was monitored via the IONFlux automated patch clamp system. IonFlux Data Analyzer software was utilized to perform leak subtraction and measure (min) peak current amplitude.
Data processing: (1) Current values recorded for vehicle only applications in individual traps/patterns were subtracted from corresponding current amplitude values for control, test article and control+test article. (2) Control response was calculated as % of the average response of the 3rd out of total 3 ACh (10 mM) applications alone. In rare situations, if the 3rd ACh response was obscured due to technical artifacts, the 2nd and/or 1st ACh (10 mM) application was considered as control. The peak current amplitude generated in the presence of each test article concentration was then used to calculate the % inhibition as compared to control response (10 mM ACh alone). These estimates were further corrected for vehicle response and run down corrected by normalizing with time matched control responses (10 mM ACh alone). The corrected percentages were then fit with a non-linear function in GraphPad Prism 6 (or later versions) to determine the IC50.
Exclusion criteria: (i) any n's with poor recording quality, (ii) control current amplitude <500 pA or (iii) significant outliers, as determined by the Grubbs' test.
ARMs compounds of Formula (I) of the invention were tested for antagonism of the nAChR in the above assay in […] experimental runs and the results are shown in Table 6 below. Antagonistic activity of the compounds of Formula (I) of the invention is reported as an IC50 value (half maximal inhibitory concentration) and the maximum percentage antagonism observed at the highest concentration of compound of Formula (I) tested, as indicated in Table 6. For compounds tested in more than one experimental run, the IC50 value is reported as an average.

Sequence of human alpha1 nicotinic acetylcholine (nACh) receptor (P02708 21-457): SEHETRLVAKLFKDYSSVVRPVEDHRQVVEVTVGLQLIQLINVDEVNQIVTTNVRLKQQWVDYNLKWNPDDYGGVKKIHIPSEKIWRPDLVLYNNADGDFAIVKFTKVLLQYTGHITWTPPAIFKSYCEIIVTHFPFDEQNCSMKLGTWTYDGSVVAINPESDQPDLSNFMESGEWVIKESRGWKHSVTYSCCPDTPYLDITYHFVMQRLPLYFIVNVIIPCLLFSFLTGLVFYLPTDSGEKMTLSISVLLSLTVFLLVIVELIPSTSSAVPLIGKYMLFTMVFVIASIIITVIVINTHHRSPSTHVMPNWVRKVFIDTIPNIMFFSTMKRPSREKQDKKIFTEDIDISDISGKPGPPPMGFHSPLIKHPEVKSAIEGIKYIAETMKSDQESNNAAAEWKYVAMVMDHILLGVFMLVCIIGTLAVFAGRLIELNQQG
Sequence of human alpha1 nicotinic acetylcholine (nACh) receptor (P11230 24-501 partner): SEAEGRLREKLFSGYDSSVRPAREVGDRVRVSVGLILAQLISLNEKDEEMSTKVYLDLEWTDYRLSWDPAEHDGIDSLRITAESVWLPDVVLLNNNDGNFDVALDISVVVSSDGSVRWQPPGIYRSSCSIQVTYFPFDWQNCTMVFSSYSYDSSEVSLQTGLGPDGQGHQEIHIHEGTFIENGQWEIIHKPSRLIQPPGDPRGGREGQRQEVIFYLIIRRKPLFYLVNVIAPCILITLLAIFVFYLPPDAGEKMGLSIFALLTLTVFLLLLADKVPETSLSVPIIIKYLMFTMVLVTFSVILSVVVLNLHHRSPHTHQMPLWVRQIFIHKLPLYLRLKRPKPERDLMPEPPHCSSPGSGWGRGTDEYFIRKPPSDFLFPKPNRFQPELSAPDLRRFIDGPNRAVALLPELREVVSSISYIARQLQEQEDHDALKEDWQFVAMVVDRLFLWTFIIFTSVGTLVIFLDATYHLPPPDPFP
Sequence of human alpha1 nicotinic acetylcholine (nACh) receptor (Q07001 22-517): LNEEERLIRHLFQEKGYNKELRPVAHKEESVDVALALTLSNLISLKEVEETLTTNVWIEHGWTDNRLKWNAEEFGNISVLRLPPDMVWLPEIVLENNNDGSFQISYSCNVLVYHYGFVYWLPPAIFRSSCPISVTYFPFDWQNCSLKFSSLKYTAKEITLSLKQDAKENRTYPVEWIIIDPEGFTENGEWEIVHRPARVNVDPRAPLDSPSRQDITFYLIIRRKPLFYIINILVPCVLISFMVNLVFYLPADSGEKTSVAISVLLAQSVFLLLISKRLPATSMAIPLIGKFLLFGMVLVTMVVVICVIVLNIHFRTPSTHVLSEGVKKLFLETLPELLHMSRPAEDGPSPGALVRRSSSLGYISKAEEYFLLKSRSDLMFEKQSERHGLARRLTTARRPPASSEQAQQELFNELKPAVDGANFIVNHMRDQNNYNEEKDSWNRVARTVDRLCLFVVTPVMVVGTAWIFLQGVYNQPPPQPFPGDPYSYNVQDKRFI

Structure (SMILES)	EC50 [1]	IC50 [2]	Emax at 10 µM ([2]; maximum percentage antagonism at Maximum Concentration of Compound Tested 10 μM, read-out: Maximum Response (%))	Emax at 100 µM ([2]; read-out: Maximum Response (%))
CO[C@@H]1COCC[C@@H]1N[C@@H]1CC[C@](CCCCNC(=O)CCOCCOCCO[C@H]2CC[C@H](OCCNC(=O)[C@H]3CC(=O)N(C)[C@@H]3c3cccnc3)CC2)(C(=O)N2CCc3ncc(C(F)(F)F)cc3C2)C1 [Example 21, (2S,3S)-N-(2-(((1r,4S)-4-(2-(2-(3-((4-((1S,3R)-3-(((3S,4S)-3-Methoxytetrahydro-2H-pyran-4-yl)amino)-1-(3-(trifluoromethyl)-5,6,7,8-tetrahydro-1,6-naphthyridine-6-carbonyl)cyclopentyl)butyl)amino)-3-oxopropoxy)ethoxy)ethoxy)cyclohexyl)oxy)ethyl)-1-methyl-5-oxo-2-(pyridin-3-yl)pyrrolidine-3-carboxamide, Formic acid salt]	6.31 nM	> 10000 nM	22%	–
CO[C@@H]1COCC[C@@H]1N[C@@H]1CC[C@](CCCCNC(=O)[C@H]2CC[C@@H](NC(=O)CCOCCOCCOCCNC(=O)[C@H]3CC(=O)N(C)[C@@H]3c3cccnc3)CC2)(C(=O)N2CCc3ncc(C(F)(F)F)cc3C2)C1 [Example 18, (2S,3S)-N-(2-(2-(2-(3-(((1R,4s)-4-((4-((1S,3R)-3-(((3S,4S)-3-Methoxytetrahydro-2H-pyran-4-yl)amino)-1-(3-(trifluoromethyl)-5,6,7,8-tetrahydro-1,6-naphthyridine-6-carbonyl)cyclopentyl)butyl)carbamoyl)cyclohexyl)amino)-3-oxopropoxy)ethoxy)ethoxy)ethyl)-1-methyl-5-oxo-2-(pyridin-3-yl)pyrrolidine-3-carboxamide, Formic acid salt]	5.01 nM	–	–	–
CO[C@@H]1COCC[C@@H]1N[C@@H]1CC[C@@](C(=O)N2Cc3cc(C(F)(F)F)cnc3[C@@H](NC(=O)CCOCCOCCOCCOCCOCCOCCOCCOCCOCCOCCOCCOCCNC(=O)[C@H]3CC(=O)N(C)[C@@H]3c3cccnc3)C2)(C(C)C)C1 (stereo in doubt) [Example 24, (2S,3S)-N-(39-(((S)-6-((1S,3R)-1-Isopropyl-3-(((3S,4S)-3-methoxytetrahydro-2H-pyran-4-yl)amino)cyclopentane-1-carbonyl)-3-(trifluoromethyl)-5,6,7,8-tetrahydro-1,6-naphthyridin-8-yl)amino)-39-oxo-3,6,9,12,15,18,21,24,27,30,33,36-dodecaoxanonatriacontyl)-1-methyl-5-oxo-2-(pyridin-3-yl)pyrrolidine-3-carboxamide, 3Formic acid salt]	1 nM	–	–	–
CO[C@@H]1COCC[C@@H]1N[C@@H]1CC[C@@](C(=O)N2Cc3cc(C(F)(F)F)cnc3[C@H](NC(=O)CCOCCOCCOCCOCCOCCOCCOCCOCCOCCOCCOCCOCCNC(=O)[C@H]3CC(=O)N(C)[C@@H]3c3cccnc3)C2)(C(C)C)C1 [Example 23, (2S,3S)—N-(39-(((R)-6-((1S,3R)-1-Isopropyl-3-(((3S,4S)-3-methoxytetrahydro-2H-pyran-4-yl)amino)cyclopentane-1-carbonyl)-3-(trifluoromethyl)-5,6,7,8-tetrahydro-1,6-naphthyridin-8-yl)amino)-39-oxo-3,6,9,12,15,18,21,24,27,30,33,36-dodecaoxanonatriacontyl)-1-methyl-5-oxo-2-(pyridin-3-yl)pyrrolidine-3-carboxamide, 3Formic acid salt]	0.398 nM	–	–	–
CO[C@@H]1COCC[C@@H]1N(CCCNC(=O)[C@H]1CC[C@H](NC(=O)CCCO[C@H]2CC[C@H](OCCNC(=O)[C@H]3CC(=O)N(C)[C@@H]3c3cccnc3)CC2)CC1)[C@@H]1CC[C@@](C(=O)N2CCc3ncc(C(F)(F)F)cc3C2)(C(C)C)C1 [Example 13, (2S,3S)-N-(2-(((1R,4S)-4-(4-(((1S,4R)-4-((3-(((1R,3S)-3-isopropyl-3-(3-(trifluoromethyl)-5,6,7,8-tetrahydro-1,6-naphthyridine-6-carbonyl)cyclopentyl)((3S,4S)-3-methoxytetrahydro-2H-pyran-4-yl)amino)propyl)carbamoyl)cyclohexyl)amino)-4-oxobutoxy)cyclohexyl)oxy)ethyl)-1-methyl-5-oxo-2-(pyridin-3-yl)pyrrolidine-3-carboxamide]	0.794 nM	> 100000 nM	–	37%
CO[C@@H]1COCC[C@@H]1N[C@@H]1CC[C@](CCCNC(=O)[C@H]2CC[C@@H](NC(=O)CCCO[C@H]3CC[C@H](OCCNC(=O)[C@H]4CC(=O)N(C)[C@@H]4c4cccnc4)CC3)CC2)(C(=O)N2CCc3ncc(C(F)(F)F)cc3C2)C1 [Example 6, (2S,3S)-N-(2-(((1R,4S)-4-(4-(((1R,4S)-4-((3-((1S,3R)-3-(((3S,4S)-3-Methoxytetrahydro-2H-pyran-4-yl)amino)-1-(3-(trifluoromethyl)-5,6,7,8-tetrahydro-1,6-naphthyridine-6-carbonyl)cyclopentyl)propyl)carbamoyl)cyclohexyl)amino)-4-oxobutoxy)cyclohexyl)oxy)ethyl)-1-methyl-5-oxo-2-(pyridin-3-yl)pyrrolidine-3-carboxamide, Formic acid salt]	0.794 nM	> 100000 nM	–	31%
CO[C@@H]1COCC[C@@H]1N[C@@H]1CC[C@](CCCCNC(=O)[C@H]2CC[C@H](NC(=O)CCCO[C@H]3CC[C@@H](OCCNC(=O)[C@H]4CC(=O)N(C)[C@@H]4c4cccnc4)CC3)CC2)(C(=O)N2CCc3ncc(C(F)(F)F)cc3C2)C1 [Example 10, (2S,3S)-N-(2-(((1S,4R)-4-(4-(((1S,4R)-4-((4-((1S,3R)-3-(((3S,4S)-3-Methoxytetrahydro-2H-pyran-4-yl)amino)-1-(3-(trifluoromethyl)-5,6,7,8-tetrahydro-1,6-naphthyridine-6-carbonyl)cyclopentyl)butyl)carbamoyl)cyclohexyl)amino)-4-oxobutoxy)cyclohexyl)oxy)ethyl)-1-methyl-5-oxo-2-(pyridin-3-yl)pyrrolidine-3-carboxamide]	1.26 nM	> 100000 nM	–	26%
CO[C@@H]1COCC[C@@H]1N[C@@H]1CC[C@](CCCNC(=O)[C@H]2CC[C@@H](NC(=O)CCCC(=O)NCCCC(=O)NCCCNC(=O)[C@H]3CC(=O)N(C)[C@@H]3c3cccnc3)CC2)(C(=O)N2CCc3ncc(C(F)(F)F)cc3C2)C1 [Example 16, N-((1R,4s)-4-((3-((1S,3R)-3-(((3S,4S)-3-Methoxytetrahydro-2H-pyran-4-yl)amino)-1-(3-(trifluoromethyl)-5,6,7,8-tetrahydro-1,6-naphthyridine-6-carbonyl)cyclopentyl)propyl)carbamoyl)cyclohexyl)-N-(4-((3-((2S,3S)-1-methyl-5-oxo-2-(pyridin-3-yl)pyrolidine-3-carboxamido)propyl)amino)-4-oxobutyl)glutaramide]	0.631 nM	71100 nM	–	64%
